Paper PMC7756392, “Syntheses of Thailandepsin B Pseudo‐Natural Products: Access to New Highly Potent HDAC Inhibitors via Late‐Stage Modification” (Chemistry (Weinheim an Der Bergstrasse, Germany), 2020)

Assays:
human recombinant HDAC1 = molecular target: T1, human recombinant HDAC1 (Homo sapiens, UniProt Q13547); experiment: ZMAL trypsin assay, HDAC1; assay type: biochemical; details: ZMAL trypsin assay
T1 construct: purchased BPS Bioscience 50051
Experimental: (§1) [28] Assays for HDAC1/6 were prepared according to: B. Heltweg , J. Trapp , M. Jung , Methods 2005, 36, 332–337; assays for HDAC8 were prepared according to: J. Senger , J. Melesina , M. Marek , C. Romier , I. Oehme , O. Witt , W. Sippl , M. Jung , J. Med. Chem. 2016, 59, 1545–1555. […]
(§2) hHDAC1/6: Activity assays were performed in OptiPlateTM-96 F black microplates (PerkinElmer). Commercial available enzymes (human recombinant HDAC1; BPS Bioscience, catalog no. 50051 and human recombinant HDAC6; BPS Bioscience, catalog no. 50006) were used. Total assay volume of 60 µL contains 42 µl of assay buffer (50 mM Tris -HCl, pH 8.0, 137 mM NaCl, 2.7 mM KCl, 1 mM MgCl2, 0.2 mM TCEP and 1 mg/mL bovine serum albumin), 10 µL of enzyme solution in assay buffer, 3 µL of increasing concentrations of inhibitors in DMSO and 5 μL of the fluorogenic substrate ZMAL (Z -(Ac)Lys-AMC) (126 μM). After incubation (90 min, 37 °C) 60 µL of stop solution, containing 5 μL Trichostatin A (TSA) (33 μM) and 10 μL trypsin (6 mg/mL) in trypsin buffer (Tris-HCl 50 mM, pH 8.0, NaCl 100 mM), were added. […]

human recombinant HDAC6 = molecular target: T2, human recombinant HDAC6 (Homo sapiens, UniProt Q9UBN7); experiment: ZMAL trypsin assay, HDAC6; assay type: biochemical; details: for inhibition at 10 µM: ZMAL trypsin assay
T2 construct: purchased BPS Bioscience 50006
T2 sequence (Q9UBN7 1-1215): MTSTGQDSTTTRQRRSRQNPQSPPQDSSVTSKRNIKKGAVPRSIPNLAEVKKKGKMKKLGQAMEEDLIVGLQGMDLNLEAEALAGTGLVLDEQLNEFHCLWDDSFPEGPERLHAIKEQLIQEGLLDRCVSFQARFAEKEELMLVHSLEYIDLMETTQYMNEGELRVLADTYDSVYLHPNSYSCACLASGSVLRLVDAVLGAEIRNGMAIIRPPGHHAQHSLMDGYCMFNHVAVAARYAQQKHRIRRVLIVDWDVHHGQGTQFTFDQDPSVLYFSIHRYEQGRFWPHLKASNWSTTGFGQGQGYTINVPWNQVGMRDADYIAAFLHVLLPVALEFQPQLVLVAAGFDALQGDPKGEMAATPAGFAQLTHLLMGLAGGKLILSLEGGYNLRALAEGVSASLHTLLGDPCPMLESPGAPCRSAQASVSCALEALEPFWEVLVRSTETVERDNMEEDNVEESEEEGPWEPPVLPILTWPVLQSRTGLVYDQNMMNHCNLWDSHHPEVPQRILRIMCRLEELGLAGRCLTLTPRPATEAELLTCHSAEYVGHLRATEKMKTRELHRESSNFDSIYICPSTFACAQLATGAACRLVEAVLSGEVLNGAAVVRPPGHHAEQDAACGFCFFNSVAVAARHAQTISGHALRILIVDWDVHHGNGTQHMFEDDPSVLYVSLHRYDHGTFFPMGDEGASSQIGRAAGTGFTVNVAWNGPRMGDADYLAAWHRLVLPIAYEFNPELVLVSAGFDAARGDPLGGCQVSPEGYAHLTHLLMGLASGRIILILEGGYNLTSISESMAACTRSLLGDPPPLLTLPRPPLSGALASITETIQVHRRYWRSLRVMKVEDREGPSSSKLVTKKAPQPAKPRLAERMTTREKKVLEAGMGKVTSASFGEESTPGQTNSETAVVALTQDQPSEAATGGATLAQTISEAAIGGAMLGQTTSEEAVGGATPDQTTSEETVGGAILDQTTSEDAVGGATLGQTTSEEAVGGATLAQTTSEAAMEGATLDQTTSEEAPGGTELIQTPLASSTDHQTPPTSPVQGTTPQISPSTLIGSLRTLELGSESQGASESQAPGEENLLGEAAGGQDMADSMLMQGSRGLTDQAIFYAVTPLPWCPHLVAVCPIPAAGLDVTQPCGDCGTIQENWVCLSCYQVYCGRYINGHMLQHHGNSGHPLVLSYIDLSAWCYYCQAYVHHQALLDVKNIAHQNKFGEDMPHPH
Experimental: as §1, §2

HDAC in HL60 cells = experiment: Cellular HDAC activity assay, HL60; assay type: cell-based; details: read-out: cellular HDAC inhibition IC50
Experimental: Cellular trypsin-based activity assay:13 1 x 10^4 Hela cells (50 µL) were seeded in sterile dark 96-well microtiter plates (Perkin Elmer) and incubated overnight at 37 °C and 5% CO2 atmosphere. The next day, the medium was aspirated and the cells were incubated with different inhibitor concentrations or DMSO, diluted in 50 µL m edium without supplements and phenol red. After 2 h incubation time, 50 µL of the HDAC substrate MAL (Boc -Lys(Ac)-AMC) were added to a final concentration of 150 µM and the plate was incubated for 2 h at 37°C and 5%
CO2. The reaction was stopped by adding 50 µL of stop solution (50 mM Tris, 137 mM NaCl, 1 mM MgCl2, 2.7 mM KCl, 1 µM TSA, 0.1% Igepal, 1 mg/ml Trypsin). After another 20 min of incubation, the fluorescence signal (λex = 390 nm, λem = 460 nm) was measured on a BMG LABTECH POLARstar OPTIMA plate reader (BMG Labtechnologies, Germany). […]

T1 sequence (Q13547 whole entry): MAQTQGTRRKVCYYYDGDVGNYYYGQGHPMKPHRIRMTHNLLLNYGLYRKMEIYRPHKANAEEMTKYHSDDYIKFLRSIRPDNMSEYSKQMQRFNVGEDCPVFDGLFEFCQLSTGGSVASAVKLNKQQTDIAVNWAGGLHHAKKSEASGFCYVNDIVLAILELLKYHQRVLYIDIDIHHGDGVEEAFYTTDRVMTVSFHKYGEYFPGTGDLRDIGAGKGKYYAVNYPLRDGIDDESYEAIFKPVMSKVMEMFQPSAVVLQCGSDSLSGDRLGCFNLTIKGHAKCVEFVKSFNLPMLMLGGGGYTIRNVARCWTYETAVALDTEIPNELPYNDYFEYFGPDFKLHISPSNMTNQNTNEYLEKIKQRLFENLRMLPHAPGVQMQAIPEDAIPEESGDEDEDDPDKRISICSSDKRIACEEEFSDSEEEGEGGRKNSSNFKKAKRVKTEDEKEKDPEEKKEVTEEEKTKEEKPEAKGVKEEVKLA

Structure (SMILES) | IC50 (human recombinant HDAC1) [nM] | inhibition at 10 µM (human recombinant HDAC6) [%] | IC50 (HDAC in HL60 cells) [nM] | HDAC6 inhibition (in words) (human recombinant HDAC6)
CCCC[C@H]1NC(=O)C[C@@H](/C=C/CCC(=O)NO)OC(=O)C[C@H](O)[C@@H]([C@@H](C)CC)NC(=O)[C@@H](C)NC1=O [compound 8] | 28 ± 2 | 39 | – | –
CCCC[C@H]1NC(=O)C[C@@H](/C=C/CCSC(C)=O)OC(=O)C[C@H](O[Si](C)(C)C(C)(C)C)[C@@H]([C@@H](C)CC)NC(=O)[C@@H](C)NC1=O [compound 32] | 18700 ± 8900 | < 5 | 66300 ± 3500 | not inhibited
CCCC[C@H]1NC(=O)C[C@@H](/C=C/CCSC(C)=O)OC(=O)C[C@H](O)[C@@H]([C@@H](C)CC)NC(=O)[C@@H](C)NC1=O [compound 33] | 12.3 ± 1.6 | 30 | 9.1 ± 0.8 | –
